Reference: EP0363230A2, “Use of acetogenins in therapy as antiparasitic substances” (LA[…] Société anonyme dite:, priority 1988, dated 1990)

Tests used:
cellules KB [1] = test: Cytotoxic effect on KB cells (dose lethal for 100 % of cells); type: cell-based, humain; conditions: 3 days at 37°C, dose lethal for 100 % of cells (complete disappearance of the cell layer)
Source text: (§1) La toxicité a été évaluée par la mesure de la cytotoxicité et de la cytostase vis-à-vis de cellules KB selon une technique usuelle. L'activité antiparasitaire a été déterminée in vitro sur Leishmania donovani, promastigote selon un protocole opératoire décrit ci-après.
(§2) On fait appel à des cellules épithéliales KB provenant d'un carcinome oral épidermoïde humain obtenues selon H. EAGLE "Propagation in a fluid medium of a human epidermoid carcinoma strain KB (21811)", Proc. Soc. Exp. Biol. and Med., 89, pages 362-364, (1955) et commercialisées par la Société dite EUROBIO.
(§3) Le milieu de culture utilisé avait la composition suivante
(§4) L'ensemencement se fait en boîte de 12 cupules contenant chacune 2 ml du milieu. Le produit à tester est mis en solution dans le diméthylsulfoxyde (DMSO) et dilué par du milieu de culture. La solution ainsi obtenue est ajoutée au milieu de culture pour obtenir des concentrations en produit à tester de 5, 10, 20, 30, 40, et […] par ml de milieu. Les cellules sont ajoutées en même temps que la solution du produit à tester.
(§5) Le milieu ensemencé et ainsi traité est mis à l'étuve à 37°C pendant 3 jours. Après fixation des cellules par la méthode dite au cristal violet [selon la technique de R.J. GILLIER et al., "Determination of cell number in monolayer cultures", Analytical Biochemistry 159, pages 109-113, (1986)]. […]

cellules KB [2] = test: Cytostatic effect on KB cells (crystal violet, optical density at 590 nm); type: cell-based, humain; conditions: 3 days at 37°C, optical density at 590 nm versus control, ***/** = statistical significance
Source text: as §1, §2, §3, §4, §5

[3] = system: Leishmania donovani, promastigote; test: Anti-Leishmania effect in vitro (growth inhibition of promastigotes, cell count); type: cell-based; conditions: for inhibition (I%): growth inhibition of Leishmania donovani promastigotes; for DI-50: dose of 50 % inhibition, 26°C; for DI-50 / DImax: Leishmania donovani LRC L52 promastigotes, 3 to 4 days; for DImax: dose of maximal measured inhibition
Experimental: as §1
On fait appel à une souche de Lieshmania donovani LRC L52 (de la collection OMS).
as §3
L'ensemencement se fait dans des boîtes de 24 cupules contenant chacune 500 µl de milieu. Le milieu est ensemencé par 500 000 promastigotes par cupule puis placé dans une étuve à CO₂ à 26°C pendant 3 à 4 heures.
Le produit à tester est ajouté en solution dans le DMSO à des concentrations variables sous un volume de 25 µl par cupule. Les boîtes ensemencées et traitées par le produit sont laissées à l'étuve pendant 3 à 4 jours.
La mesure de l'activité est effectuée par comptage des cellules à l'hémocytomètre, le nombre obtenu étant rapporté à un témoin dépourvu de produit (100 % de cellules, soit 0 % d'inhibition de croissance). Chaque manipulation est effectuée 2 fois.
Les résultats obtenus sont également consignés dans le tableau I ci-après où sont données les doses d'inhibition à 50 % (DI-50) et les doses d'inhibition maximale mesurées (DImax).

Compound | Cytotoxicité (cellules KB [1]) [µg·mL] | Cytostase (cellules KB [2]) | inhibition (I%) ([3]; DI = 10 µg.ml) [%] | DI-50 [3] | DImax [3] [µg·mL] | inhibition (I%) ([3]; DI = 20 µg.ml) [%]
CCCCCCCCCC(O)CC1CCC(C2CCC(C(O)CCCC(O)CCCCCCC(O)CCC3=CC(C)OC3=O)O2)O1 (stereo not shown) [Ex 1, 2-[5-(2-hydroxyundécyl)-2-tétrahydrofurannyl]-5-[14-(5-méthyl-2-oxo-2,5-dihydro-3-furannyl)-1,5,12-trihydroxytétradécyl]-tétrahydrofuranne] | 40 | 20*** µg.ml | 100 | 2,5 µg.ml | 10 | 
CCCCCCCCCC(O)CC1CCC(C2CCC(C(O)CCCCCCCCCCC(O)CCC3=CC(C)OC3=O)O2)O1 (stereo not shown) [Ex 8, 2-[5-(2-hydroxyundécyl)-2-tétrahydrofurannyl]-5-[14-(5-méthyl-2-oxo-2,5-dihydro-3-furannyl)-1,12-dihydroxytétradécyl]-tétrahydrofuranne] | 40 | 20** µg.ml |  | >20 µg·mL | 20 | 11
